In brackets after ≈: the same amount, converted by molar mass.
Tests used:
Type in all cases: cell-based
Candida albicans = assay: in vitro serial dilution test for antimycotic action (microtitration technique), yeast; conditions: read-out: Minimum inhibitory concentration for Candida albicans
Method: (§1) The in vitro tests for an antimycotic action are carried out in serial dilution tests on yeasts (Candida albicans) and molds (Aspergillus niger) [Material and Methods: Microtitration technique published in Mykosen 27, 14 (1984)].

Aspergillus niger = assay: in vitro serial dilution test for antimycotic action (microtitration technique), mold; conditions: read-out: Minimum inhibitory concentration for Aspergillus niger
Method: as §1

[1] = system: yeasts (Candida albicans) and molds (Aspergillus niger); assay: in vitro tests for an antimycotic action in serial dilution, overall result in words; conditions: compared with reference substance niphimycin
Method: as §1

Compound | MIC (Candida albicans) | MIC (Aspergillus niger) | antimycotic properties [1]
CNC(=N)NCCCC=CCCCC(C)CC(C)C1OC(=O)C(C)C(O)C=CC(C)C(O)CC(O)C(C)C(O)CCC(C)C(O)CC2(O)OC(CC(O)CC(O)CC(O)C(C)C(O)C=CC=CC1C)CC(O)C2O (centres unmarked) [Demalonyl compound] | 3.9 µg/mL (≈ 3.69 µM) | 1.95 µg/mL (≈ 1.85 µM) | good antimycotic properties which are superior to those of the reference substance niphimycin
CNC(=N)NCCCC=CCCCC(C)CC(C)C1OC(=O)C(C)C(O)C=CC(C)C(O)CC(O)C(C)C(O)CCC(C)C(O)CC2(O)OC(CC(OC(=O)CC(=O)O)CC(O)CC(O)C(C)C(O)C=CC=CC1C)CC(O)C2O (centres unmarked) [Niphimycin, reference compound] | 7.8 µg/mL (≈ 6.83 µM) | 3.9 µg/mL (≈ 3.41 µM) | –

Reference: patent publication US4873347A, “Process for the preparation of the demalonyl compound of macrolide lactones” (Hoechst Aktiengesellschaft, priority 1986, dated 1989)
